Test results as given in article PMC7948497, “Iron uptake mediated by the plant-derived chelator nicotianamine in the small intestine” (The Journal of Biological Chemistry, 2020).

Target: T1, hPAT1 (SLC36A1) (Homo sapiens, UniProt Q7Z2H8)
T1 construct: full open reading frame amplified from human small intestine RNA, pTNT vector, cRNA injected into Xenopus laevis oocytes; 476 residues, about 53 kDa
Assay: two-electrode voltage clamp of Xenopus oocytes, substrate-induced current; inhibition of NA-Fe(II)-elicited current
Assay type: cell-based
Conditions: pH 6.0, -60 mV; 0.5 mM NA-Fe(II) (figure legend; Methods say 1 mM)

T1 sequence (Q7Z2H8 whole entry): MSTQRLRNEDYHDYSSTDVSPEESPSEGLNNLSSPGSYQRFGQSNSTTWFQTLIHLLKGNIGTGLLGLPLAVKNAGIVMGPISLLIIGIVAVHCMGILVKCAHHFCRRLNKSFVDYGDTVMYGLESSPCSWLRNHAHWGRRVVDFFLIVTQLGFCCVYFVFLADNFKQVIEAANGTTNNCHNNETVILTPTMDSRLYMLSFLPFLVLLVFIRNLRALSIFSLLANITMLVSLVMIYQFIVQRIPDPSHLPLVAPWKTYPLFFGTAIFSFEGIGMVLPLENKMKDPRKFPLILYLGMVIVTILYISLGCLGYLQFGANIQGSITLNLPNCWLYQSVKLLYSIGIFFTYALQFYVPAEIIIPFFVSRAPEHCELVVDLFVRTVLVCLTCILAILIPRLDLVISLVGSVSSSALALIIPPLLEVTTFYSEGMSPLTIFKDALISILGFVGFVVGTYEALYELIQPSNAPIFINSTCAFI

% of original current remaining at 5 mM: 30.1%
SMILES: N[C@@H](Cc1c[nH]c2ccc(O)cc12)C(=O)O [5-hydroxytryptophan]
